Measured values reported in patent US8530648B2, “Diaza-spiro[5.5]undecanes” (Novartis AG, priority 2009, dated 2013).

Legend:
[1] = biological target: T1, hOx1R (Homo sapiens (Human), UniProt O43613); assay: Calcium accumulation in cells (FLIPR), hOx1R; assay type: cell-based; details: for Ki: inhibition of orexin A induced calcium accumulation, Cheng and Prusoff correction; for inhibition at 10 µM: measured at a concentration of 10 μM of compound
Summary of the method: (§1)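 Cells expressing human orexin 1 or 2 receptor, serum-deprived overnight, loaded with Fluo-4-AM (2 μM) plus 0.1 mM probenecid, pH 7.4 HEPES buffer with 1% BSA.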

[2] = biological target: T2, hOx2R (Homo sapiens (Human), UniProt O43614); assay: Radioligand binding assay, [3H]-SB649868, hOx2R; details: radioligand [3H]-SB649868, competition
T2 sequence (O43614 whole entry): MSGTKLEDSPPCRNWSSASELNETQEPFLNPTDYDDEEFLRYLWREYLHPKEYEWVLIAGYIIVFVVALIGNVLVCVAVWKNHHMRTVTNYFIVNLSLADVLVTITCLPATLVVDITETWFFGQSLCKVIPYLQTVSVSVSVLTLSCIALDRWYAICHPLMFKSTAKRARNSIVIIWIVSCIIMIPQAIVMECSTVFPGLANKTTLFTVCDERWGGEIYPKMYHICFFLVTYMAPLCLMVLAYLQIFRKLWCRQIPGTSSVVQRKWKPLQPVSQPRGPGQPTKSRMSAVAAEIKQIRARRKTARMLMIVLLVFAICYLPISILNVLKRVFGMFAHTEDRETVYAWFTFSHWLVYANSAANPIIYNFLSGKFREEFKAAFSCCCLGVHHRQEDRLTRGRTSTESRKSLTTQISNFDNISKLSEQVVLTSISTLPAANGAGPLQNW
Experimental: (§2) For crude cell membrane preparations, cells (CHO, Chinese hamster ovary or HEK, human embryonic kidney) expressing human orexin 1 or human orexin 2 receptors, were washed with HEPES (10 mM, pH 7.5), scraped off the culture plates with the same buffer, and centrifuged at 4° C. for 5 min at 2500×g. The cell pellet was either stored at −80° C. or used directly. Before the experiments, cell membranes were re-suspended in binding assay buffer (10 mM HEPES, 0.5% (w/v) bovine serum albumin, pH 7.5) by homogenisation with a Polytron homogeniser at 50 Hz for 20 s. Cell membranes were also used as made available by commercial providers.
(§3) Bound radioactivity was measured, and data were analysed with the program XLFIT or Graphpad Prism. Protein concentration was determined according to the Bradford/BioRad Protein Assay Kit.
(§4) In competition experiments, cell homogenates (150 μl) were incubated in assay buffer (10 mM HEPES, pH 7.5, 0.5% (w/v) bovine serum albumin, 5 mM MgCl2, 1 mM CaCl2, and tween 0.05%) for 1 h at room temperature with about 1 nM of the radioligand [^3H]-SB649868, 66 Ci/mmole, 50 μl), and with various concentrations of compounds of the invention (50 μl) in triplicates; non-specific binding was determined in the presence of almorexant (10 μM).

[3] = biological target: T2, hOx2R; assay: Calcium accumulation in cells (FLIPR), hOx2R; assay type: cell-based; details: for Ki: inhibition of orexin A induced calcium accumulation, Cheng and Prusoff correction
Summary of the method: as §1

[4] = biological target: T1, hOx1R; assay: Radioligand binding assay, [3H]-SB649868, hOx1R; details: radioligand [3H]-SB649868, competition
Experimental: as §2, §3, §4

T1 sequence (O43613 whole entry): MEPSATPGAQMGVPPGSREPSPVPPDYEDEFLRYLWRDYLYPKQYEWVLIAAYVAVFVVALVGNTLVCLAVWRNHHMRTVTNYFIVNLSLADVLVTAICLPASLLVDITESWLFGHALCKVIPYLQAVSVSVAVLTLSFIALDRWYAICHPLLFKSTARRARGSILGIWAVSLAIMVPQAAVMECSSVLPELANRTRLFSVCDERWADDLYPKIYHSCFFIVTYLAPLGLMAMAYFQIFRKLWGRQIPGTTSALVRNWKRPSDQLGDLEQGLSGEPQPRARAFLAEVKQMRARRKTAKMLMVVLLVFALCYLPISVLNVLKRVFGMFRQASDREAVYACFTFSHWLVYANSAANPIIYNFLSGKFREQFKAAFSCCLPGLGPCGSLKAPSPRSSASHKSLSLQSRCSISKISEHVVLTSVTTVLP

Structure (SMILES) | Ki [1] | Kd [2] | Ki [3] | Kd [4] | inhibition at 10 µM [1] | inhibition at 10 µM ([3]; measured at a concentration of 10 μM of compound)
O=C1N(Cc2cccc(-n3cccn3)n2)CCCC12CCN(c1cnc3ccccc3n1)CC2 [Example 83, 2-((6-(1H-pyrazol-1-yl)pyridin-2-yl)methyl)-9-(quinoxalin-2-yl)-2,9-diazaspiro[5.5]undecan-1-one] | 1730 nM | 364 nM | 80 nM | 2760 nM |  | 
O=C1N(Cc2ncoc2-c2ccccc2)CCCC12CCN(c1cnc3ccccc3n1)CC2 [Example 95, 2-((5-phenyloxazol-4-yl)methyl)-9-(quinoxalin-2-yl)-2,9-diazaspiro[5.5]undecan-1-one] | 223 nM | 36 nM | 8 nM | 429 nM |  | 
O=C1N(Cc2ccccc2-c2ncco2)CCCC12CCN(c1cnc3ccccc3n1)CC2 [Example 149, 2-(2-(oxazol-2-yl)benzyl)-9-(quinoxalin-2-yl)-2,9-diazaspiro[5.5]undecan-1-one] | 981 nM | 268 nM | 19 nM | 3450 nM |  | 
O=C1N(Cc2ccnc(-n3cccn3)c2)CCCC12CCN(c1cnc3ccccc3n1)CC2 [Example 63, 2-((2-(1H-pyrazol-1-yl)pyridin-4-yl)methyl)-9-(quinoxalin-2-yl)-2,9-diazaspiro[5.5]undecan-1-one] | 900 nM | 903 nM | 83 nM | 3820 nM |  | 
O=C1N(Cc2cccc3nsnc23)CCCC12CCN(c1cnc3ccccc3n1)CC2 [Example 113, 2-(benzo[c][1,2,5]thiadiazol-4-ylmethyl)-9-(quinoxalin-2-yl)-2,9-diazaspiro[5.5]undecan-1-one] | 1360 nM | 630 nM | 82 nM | 3500 nM |  | 
O=C1N(Cc2cccc(-c3ncccn3)c2)CCCC12CCN(c1cnc3ccccc3n1)CC2 [Example 61, 2-(3-(pyrimidin-2-yl)benzyl)-9-(quinoxalin-2-yl)-2,9-diazaspiro[5.5]undecan-1-one] | 373 nM | 395 nM | 62 nM | 2050 nM |  | 
Cn1cc(CN2CCCC3(CCN(c4cnc5ccccc5n4)CC3)C2=O)c2ccccc21 [Example 130, 2-((1-methyl-1H-indol-3-yl)methyl)-9-(quinoxalin-2-yl)-2,9-diazaspiro[5.5]undecan-1-one] | 422 nM | 134 nM | 29 nM | 1280 nM |  | 
Cc1nc(CN2CCCC3(CCN(c4cnc5ccccc5n4)CC3)C2=O)c(-c2cccc(F)c2)s1 [Example 73, 2-((5-(3-fluorophenyl)-2-methylthiazol-4-yl)methyl)-9-(quinoxalin-2-yl)-2,9-diazaspiro[5.5]undecan-1-one] | 438 nM | 219 nM | 55 nM | 1150 nM |  | 
O=C1N(Cc2cccc3c2OCCO3)CCCC12CCN(c1nccc3occc13)CC2 [Example 82, 2-((2,3-dihydrobenzo[b][1,4]dioxin-5-yl)methyl)-9-(furo[3,2-c]pyridin-4-yl)-2,9-diazaspiro[5.5]undecan-1-one] |  | 624 nM | 81 nM | 5090 nM | 33% | 
Cc1ccc(-n2nccn2)cc1CN1CCCC2(CCN(c3cnc4ccccc4n3)CC2)C1=O [Example 128, 2-(2-methyl-5-(2H-1,2,3-triazol-2-yl)benzyl)-9-(quinoxalin-2-yl)-2,9-diazaspiro[5.5]undecan-1-one] | 967 nM | 160 nM | 73 nM | > 10000 nM |  | 
O=C1N(Cc2cccc(-c3ccncc3)c2)CCCC12CCN(c1cnc3ccccc3n1)CC2 [Example 58, 2-(3-(pyridin-4-yl)benzyl)-9-(quinoxalin-2-yl)-2,9-diazaspiro[5.5]undecan-1-one] | 570 nM |  | 217 nM |  |  | 
N#Cc1cc(CN2CCCC3(CCN(c4cnc5ccccc5n4)CC3)C2=O)ccc1F [Example 94, 2-fluoro-5-((1-oxo-9-(quinoxalin-2-yl)-2,9-diazaspiro[5.5]undecan-2-yl)methyl)benzonitrile] | 1700 nM |  | 282 nM |  |  | 
Cc1cccc(CN2CCCC3(CCN(c4cnc5ccccc5n4)CC3)C2=O)c1C [Example 17, 2-(2,3-dimethylbenzyl)-9-(quinoxalin-2-yl)-2,9-diazaspiro[5.5]undecan-1-one] | 1720 nM |  | 247 nM |  |  | 
Cc1ncc(CN2CCCC3(CCN(c4cnc5ccccc5n4)CC3)C2=O)c2c1OC(C)(C)OC2 [Example 117, 9-(quinoxalin-2-yl)-2-((2,2,8-trimethyl-4H-[1,3]dioxino[4,5-c]pyridin-5-yl)methyl)-2,9-diazaspiro[5.5]undecan-1-one] | 2380 nM |  | 249 nM |  |  | 
COc1cccc(CN2CCCC3(CCN(c4cnc5ccccc5n4)CC3)C2=O)c1F [Example 102, 2-(2-fluoro-3-methoxybenzyl)-9-(quinoxalin-2-yl)-2,9-diazaspiro[5.5]undecan-1-one] | 2430 nM |  | 225 nM |  |  | 
COCc1cccc(CN2CCCC3(CCN(c4cnc5ccccc5n4)CC3)C2=O)c1 [Example 80, 2-(3-(methoxymethyl)benzyl)-9-(quinoxalin-2-yl)-2,9-diazaspiro[5.5]undecan-1-one] | 2990 nM |  | 96 nM |  |  | 
N#Cc1ccccc1CN1CCCC2(CCN(c3cnc4ccccc4n3)CC2)C1=O [Example 124, 2-((1-oxo-9-(quinoxalin-2-yl)-2,9-diazaspiro[5.5]undecan-2-yl)methyl)benzonitrile] | 932 nM |  | 140 nM |  |  | 
Cc1noc(-c2cccc(CN3CCCC4(CCN(c5cnc6ccccc6n5)CC4)C3=O)c2)n1 [Example 104, 2-(3-(3-methyl-1,2,4-oxadiazol-5-yl)benzyl)-9-(quinoxalin-2-yl)-2,9-diazaspiro[5.5]undecan-1-one] |  | 1370 nM | 106 nM |  |  | 
O=C1CCCC2(CCN(c3nc4ccccc4[nH]3)CC2)N1Cc1cccc2[nH]ccc12 [Example 138, 1-((1H-indol-4-yl)methyl)-9-(1H-benzo[d]imidazol-2-yl)-1,9-diazaspiro[5.5]undecan-2-one] | 3790 nM |  | 1970 nM |  |  | 
Cc1cc(C)n(-c2ccccc2CN2CCCC3(CCN(c4cnc5ccccc5n4)CC3)C2=O)n1 [Example 115, 2-(2-(3,5-dimethyl-1H-pyrazol-1-yl)benzyl)-9-(quinoxalin-2-yl)-2,9-diazaspiro[5.5]undecan-1-one] |  |  | 1200 nM |  | 57% | 
COc1ccc(-c2nnc(CN3CCCC4(CCN(c5cnc6ccccc6n5)CC4)C3=O)o2)cc1 [Example 31, 2-((5-(4-methoxyphenyl)-1,3,4-oxadiazol-2-yl)methyl)-9-(quinoxalin-2-yl)-2,9-diazaspiro[5.5]undecan-1-one] | 3690 nM |  | 1180 nM |  |  | 
Cc1oc(-c2cscn2)nc1CN1CCCC2(CCN(c3cnc4ccccc4n3)CC2)C1=O [Example 114, 2-((5-methyl-2-(thiazol-4-yl)oxazol-4-yl)methyl)-9-(quinoxalin-2-yl)-2,9-diazaspiro[5.5]undecan-1-one] | 3790 nM |  | 831 nM |  |  | 
O=C1N(Cc2nccn2Cc2ccccc2)CCCC12CCN(c1cnc3ccccc3n1)CC2 [Example 86, 2-((1-benzyl-1H-imidazol-2-yl)methyl)-9-(quinoxalin-2-yl)-2,9-diazaspiro[5.5]undecan-1-one] |  |  | 372 nM |  | 47% | 
O=C1N(Cc2cc(-n3cccn3)ccn2)CCCC12CCN(c1cnc3ccccc3n1)CC2 [Example 127, 2-((4-(1H-pyrazol-1-yl)pyridin-2-yl)methyl)-9-(quinoxalin-2-yl)-2,9-diazaspiro[5.5]undecan-1-one] | 2340 nM |  | 299 nM |  |  | 
O=C1N(Cc2cccc3c2CCN3)CCCC12CCN(c1cnc3ccccc3n1)CC2 [Example 126, 2-(indolin-4-ylmethyl)-9-(quinoxalin-2-yl)-2,9-diazaspiro[5.5]undecan-1-one] | 1250 nM |  | 267 nM |  |  | 
O=C1CCCC2(CCN(c3nc4ccc(Cl)cc4o3)CC2)N1Cc1cccc2[nH]ccc12 [Example 139, 1-((1H-indol-4-yl)methyl)-9-(6-chlorobenzo[d]oxazol-2-yl)-1,9-diazaspiro[5.5]undecan-2-one] | 541 nM |  | 105 nM |  |  | 
O=C1N(Cc2ccc3nonc3c2)CCCC12CCN(c1cnc3ccccc3n1)CC2 [Example 53, 2-(benzo[c][1,2,5]oxadiazol-5-ylmethyl)-9-(quinoxalin-2-yl)-2,9-diazaspiro[5.5]undecan-1-one] |  |  |  |  | 37% | 24%
Cn1ccc2c(CN3CCCC4(CCN(c5cnc6ccccc6n5)CC4)C3=O)cccc21 [Example 26, 2-((1-methyl-1H-indol-4-yl)methyl)-9-(quinoxalin-2-yl)-2,9-diazaspiro[5.5]undecan-1-one] | 614 nM |  | 168 nM |  |  | 
N#Cc1ccc(F)c(CN2CCCC3(CCN(c4cnc5ccccc5n4)CC3)C2=O)c1 [Example 99, 4-fluoro-3-((1-oxo-9-(quinoxalin-2-yl)-2,9-diazaspiro[5.5]undecan-2-yl)methyl)benzonitrile] | 1100 nM |  | 142 nM |  |  | 
